Data: patent US5739115A, “Sulfated maltooligosaccharides with heparin-like properties” (Glycomed Incorporated, priority 1994, dated 1998)
Blank lines part the entries; values can stand above or below the compound they belong to.

How the values were obtained:
[1] = test system: adrenocortical endothelial (ACE) cell line; test: Inhibition of bFGF-dependent adrenocortical endothelial (ACE) cell proliferation; format: cell-based; settings: 2 ng/ml bFGF, four days, result in words, FIGS. 2 and 4
Protocol: The capacity of the sulfated maltohexaoses to inhibit the proliferation of a bFGF-dependent adrenocortical endothelial (ACE) cell line was determined. This cell line (provided by D. Gospodarowicz, UCSF) requires either aFGF or bFGF for a proliferative response. Cells were seeded at low density in microtiter wells in the presence of 2 ng/ml bFGF, and growth was determined as total protein after four days in the presence of the sulfated maltohexaoses.

bFGF = test: Binding of RO-12 UC cells to bFGF coated micro-titer wells; format: cell-based, human; settings: result in words, FIGS. 1 and 3
Protocol: Bound cells are readily quantitated as total protein.
The assay was run as follows: Fifty microliters of 10 ug/ml human recombinant bFGF was added to wells of a 96-well tissue culture plate and incubated overnight at 4° C. The wells were aspirated with PBS to remove any unbound bFGF, rinsed twice with PBS, and subsequently incubated with PBS containing 5% (v/v) fetal bovine serum for 1 hour at room temperature. RO-12 UC cells were suspended at a density of 3×10^6 cells/ml in PBS containing 5% fetal bovine serum. To this mixture was added the desired amount of sulfated composition, or heparin. […] Next, 100 ul of the cell suspension was immediately added to the microtiter wells, and incubated for 5 minutes, after which the wells were washed 3 times with PBS. Finally, the amount of cell protein bound to the wells was determined by dissolving the bound cells in 20 ul of 5% SDS and measuring the protein. concentration of the cell lysates. BSA was used as the standard.

[2] = test system: Bovine smooth muscle cells (SMC); test: Inhibition of smooth muscle cell (SMC) growth; format: cell-based; settings: for inhibition of SMC growth (anti-proliferative activity): relative to heparin
Excerpt: Maltotetraose, maltopentaose and maltohexaose were sulfated as described in Examples 1-3, and assayed for their effects on smooth muscle cell proliferation using a standard assay for this activity. A convenient assay, in detail, is as follows:
Solutions to be tested are made up in DMEM medium containing 10% fetal calf serum and penicillin/streptomycin. Bovine smooth muscle cells (SMC) are isolated from bovine aorta by the method of Ross, R., J Cell Biol (1971) 172-186. SMC from passage 3-10 are plated at 350-700 cells per well in 96-well microtiter plates in the medium above and allowed to attach for 2-4 hr. The complete medium is then replaced with DMEM supplemented with 0.1% fetal calf serum, and the cells are incubated for an additional period of about 24 to 72 hr to arrest cell growth. The low-serum medium is then replaced with complete medium containing the test samples. The sulfated maltose oligosaccharides of the invention were added to the medium to make final concentrations as shown in the figures. The effects of heparin at the same concentrations were also determined.
The cells are allowed to grow for up to 7 days with replicate plates sampled at regular intervals. Cell number is determined by removing the medium and washing the cells with phosphate-buffered saline, adding 75-150 ul lysis buffer, and assaying for lactate dehydrogenase (LDH) activity, as described by Brandley, B., et at., J Biol Chem (1987) 262:6431. The activity of LDH is proportional to cell number.

[3] = test system: basic fibroblast growth factor; settings: literature; result in words; cited from earlier work
[4] = test system: pericyte and smooth muscle cell; settings: literature; result in words; cited from earlier work
vascular proliferation = settings: literature; result in words; cited from earlier work
heparanase = test: Heparanase inhibition, rat hepatoma cell heparanase; format: biochemical
Protocol: Highly sulfated maltotetraose, Composition 5, Table 2, maltoheptaose and maltose were tested for heparanase inhibitory activity using heparanase from a rat hepatoma cell line. […] Further, their inhibitory activities were compared to porcine mucosal heparin. […] The following procedures and materials were used. Confluent rat hepatoma cell cultures were grown in standard cell culture flasks, and washed 3 times with 10 ml of a 50 mM Hepes solution containing 0.25M sucrose and 0.14M NaCl, pH 7.4. Next, 1 ml of a 50 mM MES buffer, pH 5.2, containing 0.14M NaCl, 6 mM sodium azide, and certain protease inhibitors was added and the cells removed from the flask using a disposable cell scraper. The following protease inhibitors were present in the MES buffer: 0.2 ug/ml aprotinin, 0.5 ug/ml leupeptin, 100 ug/ml soybean trypsin inhibitor, 1 mM PMSF, 2 mM EDTA (sodium salt), and 15 mM D-saccharic acid 1,4 lactone (exoglucuronidase inhibitor).
The cells were added to a 7 ml Dounce homogenizer, freezed/thawed 3 times in an ethanol/dry ice bath, and homogenized with 15 strokes using a tight pestle. The resulting cell lysates were placed in a 2 ml centrifuge tube and centrifuged at 4° C. for 30 minutes at 16,000×g. The supernatant was removed, and the protein concentration in the supernatant determined using the Macro BCA protein assay. BSA was used as a standard. Heparanase activity was quantified by measuring soluble N-^3 H-acetylated pancreas heparan sulfate fragments derived from uncleaved N-^3 H-acetylated pancreas heparan sulfate distinguishable by cetylpyridinium chloride (CPC) precipitation. […] The following procedures were used.
Next, 10 ul of distilled water containing various concentrations of porcine mucosal heparin, or the appropriate highly sulfated maltooligosaccharide, was added. Then, 30 ul of rat hepatoma cell supernatant, isolated as described above, containing 7.5-10 ug of protein in 50mM MES buffer, pH 5.2, containing 0.14M NaCl, 6mM sodium azide and the protease inhibitors described above, is added to siliconized 1.5 ml microcentrifuge tubes. Three to six replicates were run for each concentration of highly sulfated maltotetraose while three replicates were run for each concentration of porcine mucosal heparin. Controls were run to account for background counts.
The enzyme substrate inhibitor mixture was mixed, after which the tubes were incubated at 37° C. for 20 minutes. After 20 minutes, the reaction was stopped by adding to the reaction tubes 150 ul of an aqueous heparin solution (0.33 mg/ml). 200 ul of 100 mM sodium acetate pH 5.5 and 100 ul of CPC (0.6% in water) were then added. Three replicates maintained on ice were run as background controls (0 min.) in which the enzyme was added to the tubes immediately followed by heparin to terminate the reaction. […]

[5] = test system: chicken chorioallantoic membrane (CAM); test: Chicken chorioallantoic membrane (CAM) assay, angiostatic activity; format: in vivo
Excerpt: Compositions that stimulate or inhibit angiogenesis can be identified using several assays known in the art. The chick chorioallantoic membrane (CAM) assay is commonly used. Using the CAM assay, certain heparinoids inhibit angiogenesis when administered with certain steroids. Folkman and Ingber, Ann, Surg. (1987) 206:374, Folkman et at., Science (1983) 221:719.
Compositions that stimulate or inhibit angiogenesis can be identified using several assays known in the art. Highly sulfated maltotetraose, Composition 5, Table 2, was tested for angiogenesis activity using the chicken chorioallantoic membrane (CAM) assay. The assay was performed as described by Castellot et. at., J. of Cellular Physiology (1986) 127: 323-329, with the exception that samples were evaluated for their efficacy to inhibit neovascularization. Carboxy methyl cellulose pellets containing 50 ug of hydrocortisone, or hydrocortisone plus different amounts of highly sulfated maltotetraose were incubated on the CAM for 3-4 days before scoring the results. Highly sulfated maltotetraose was produced as described in Example 2. Angiostatic activity is defined as a partial clearing or an avascular zone around the pellet. […]

CAPAN-2 = CAPAN-2 pancreatic tumor growth in nude mice; format: in vivo, human tumor in nude mouse; settings: dosed once daily from day 0; result in words
Protocol: (§1) Experiments were conducted to test the efficacy of highly sulfated maltotetraose, Composition 5, Table 2, on tumor growth in an animal model system, the nude mouse. The growth of human tumors in the nude mouse has clinical relevance to the growth of tumors in humans.
Three human tumor cell lines were utilized, the mammary adenocarcinoma, MDA231, the pancreatic tumor cell line, CAPAN-2, and the prostatic adenocarcinoma cell line, PC-3. All cell lines are available from the American Type Culture Collection, and grow aggressively in nude mice. The experiments were conducted as follows: female, 15-20 gram nude mice, in groups of ten, were inoculated subcutaneously with 3-5×10^6 viable MDA231, CAPAN-2, or PC-3 cells in 0.1 ml PBS. The cells were grown in standard DMEM tissue culture media supplemented with 10% fetal calf serum in a humidified 5% CO2 incubator at 37° C. The cells were harvested with trypsin-EDTA, washed 2× with PBS, resuspended at a concentration of 3-5×10^7 cells/ml, and placed on ice prior to injection. […]
(§2) Tumor volume was determined using the following formula: [formula]
The effects of highly satfated maltotetraose on CAPAN-2 tumor cell growth were determined using the materials and methods set forth above with the following exceptions. […]

PC-3 = PC-3 prostatic adenocarcinoma tumor growth in nude mice; format: in vivo, human tumor in nude mouse; settings: 80 mg/kg/day subcutaneous, 23 days, all time points tested; result in words
Protocol: as §1
(§3) Three human tumor cell lines were utilized, the mammary adenocarcinoma, MDA231, the pancreatic tumor cell line, CAPAN-2, and the prostatic adenocarcinoma cell line, PC-3. All cell lines are available from the American Type Culture Collection, and grow aggressively in nude mice. The experiments were conducted as follows: female, 15-20 gram nude mice, in groups of ten, were inoculated subcutaneously with 3-5×10^6 viable MDA231, CAPAN-2, or PC-3 cells in 0.1 ml PBS. The cells were grown in standard DMEM tissue culture media supplemented with 10% fetal calf serum in a humidified 5% CO2 incubator at 37° C. The cells were harvested with trypsin-EDTA, washed 2× with PBS, resuspended at a concentration of 3-5×10^7 cells/ml, and placed on ice prior to injection.
[…] The composition was filter sterilized with a 0.2 um Gelman filter unit.
as §2
Finally, the effects of highly sulfated maltotetraose on the human prostatic adenocarcinoma line, PC-3, was determined. This cell line is also available from the American Type Culture Collection. […]

MDA231 = MDA231 mammary adenocarcinoma tumor growth in nude mice; format: in vivo, human tumor in nude mouse; settings: for MDA231 tumor growth inhibition: result in words
Protocol: as §1, §3
On a dally basis, the mice were subcutaneously injected with 100 mg/kg of highly sulfated maltotetraose made up in PBS, and produced as described in Example 2. The composition was filter sterilized with a 0.2 um Gelman filter unit.
as §2
Control mice were injected with PBS vehicle only. Experimental and control mice were injected twice daily with 0.05 ml of the appropriate solution starting on days 0-40 post tumor challenge. From days 41-70 the animals were dosed once daily with 100 mg/kg/day in a volume of 0.1 ml per injection, and tumor volume measured at defined times using standard methods.

[6] = listed as highly sulfated maltotriose
[7] = listed as highly sulfated maltose
[8] = hydrocortisone 50 ug/pellet alone, 24 hr

Compound: highly sulfated maltotriose [Composition 8]
inhibition of adrenocortical endothelial cell proliferation [1, 6]: less active | inhibition of adrenocortical endothelial cell proliferation ([1]; listed as sulfated maltotriose): little or no activity | inhibition of binding of RO-12 UC cells to bFGF coated wells (bFGF; [6]): less active | inhibition of binding of RO-12 UC cells to bFGF coated wells (bFGF; listed as sulfated maltotriose): little or no activity

Compound: heparin
concentration that gave 100% inhibition of SMC proliferation ([2]; heparin reference): 150 µg/mL | binding to basic fibroblast growth factor [3]: binds heparin quite strongly in vitro | inhibition of pericyte and/or smooth muscle cell proliferation [4]: inhibitor of both pericyte and smooth muscle cell proliferation | vascular proliferation associated with injury (vascular proliferation): slow or arrest the vascular proliferation | inhibition of binding of RO-12 UC cells to bFGF coated wells (bFGF): inhibits RO-12 UC cell binding

Compound: highly sulfated maltopentaose [Composition 6]
inhibition of SMC growth, per cent of heparin inhibition ([2]; about 50 ug/ml): 100% | inhibition of SMC growth (anti-proliferative activity) ([2]; result in words): more effective in inhibiting SMC proliferation than the smaller-sized sulfated maltotetraose | inhibition of adrenocortical endothelial cell proliferation [1]: significant activity | inhibition of binding of RO-12 UC cells to bFGF coated wells (bFGF): significant activity

Compound: dermatan sulfate
inhibition of pericyte and/or smooth muscle cell proliferation [4]: do not have this effect

Compound: heparan sulfate
vascular proliferation associated with injury (vascular proliferation): slow or arrest the vascular proliferation

Compound: highly sulfated maltoheptaose [Composition 7]
heparanase inhibition (heparanase; result in words): as active as heparin | inhibition of adrenocortical endothelial cell proliferation [1]: significant activity | inhibition of binding of RO-12 UC cells to bFGF coated wells (bFGF): significant activity

Compound: chondroitin sulfate
inhibition of pericyte and/or smooth muscle cell proliferation [4]: do not have this effect

Compound: highly sulfated maltose [Composition 9]
heparanase inhibition (heparanase; at greater than 200 ug/ml, result in words): no activity | inhibition of adrenocortical endothelial cell proliferation [1]: little or no activity relative to the highly sulfated maltotetraose composition | inhibition of adrenocortical endothelial cell proliferation [1, 7]: less active | inhibition of binding of RO-12 UC cells to bFGF coated wells (bFGF): little or no activity relative to the highly sulfated maltotetraose composition | inhibition of binding of RO-12 UC cells to bFGF coated wells (bFGF; [7]): less active

Compound: C[C@]12CCC(=O)C=C1CC[C@@H]1[C@@H]2[C@@H](O)C[C@@]2(C)[C@H]1CC[C@]2(O)C(=O)CO [Hydrocortisone, hydrocortisone]
number of embryos scored, NO EFFECT [5, 8]: 27 embryos | number of embryos scored, avascular zone (++) [5, 8]: 0 embryos | number of embryos scored, partial clearing (+) [5, 8]: 2 embryos

heparanase IC50 (heparanase; rat hepatoma heparanase, pH 5.2, 37° C., 20 minutes): 9.0 µg/mL
Compound: highly sulfated maltotetraose [Composition 5]
CAPAN-2 tumor growth inhibition (CAPAN-2): significantly inhibits tumor growth | inhibition of SMC growth ([2]; 150 ug/ml, result in words): one hundred per cent inhibition was not observed | inhibition of SMC growth, per cent of heparin inhibition ([2]; about 60 ug/ml): about 50% | inhibition of SMC growth (anti-proliferative activity) ([2]; result in words): significant anti-proliferative effects, although not as great as heparin | heparanase inhibition relative to porcine mucosal heparin (heparanase; result in words, FIG. 11): approximately one half as effective as porcine mucosal heparin | inhibition of adrenocortical endothelial cell proliferation [1]: significant activity | PC-3 growth inhibition (PC-3): inhibited PC-3 cell growth at all the time points tested | angiostatic activity ([5]; HSM alone, without hydrocortisone, result in words): inactive | MDA231 tumor growth inhibition (MDA231; 100 mg/kg subcutaneous): tumor growth is significantly inhibited | time at which inhibition is first apparent (MDA231; MDA231, about): 36 to 37 days | tumor volume (MDA231; MDA231, days 68-69, control about 375 mm^3): ~125 mm^3 | MDA231 tumor growth inhibition (MDA231; by days 68-69): dramatic | inhibition of binding of RO-12 UC cells to bFGF coated wells (bFGF): significant activity
